Experimental data reported in publication PMC5693948, “Phosphatidylserine decarboxylase CT699, lysophospholipid acyltransferase CT775, and acyl-ACP synthase CT776 provide membrane lipid diversity to Chlamydia trachomatis” (Scientific Reports, 2017).

Legend:
[1] = biological target: T1, hACSL6-iso2 (human long-chain acyl-CoA synthetase 6) (Homo sapiens, UniProt Q9UKU0); test: competition with […]C18:1-CoA formation; format: biochemical; conditions: 1 µM [14C]C18:1-OH, ATP, CoASH, 0.15 µM enzyme, 30 °C; competing substrate
T1 construct: gene ACSL6; hexahistidine fusion, Ni-NTA partially purified, CHAPS lysis
T1 sequence (Q9UKU0 1-697): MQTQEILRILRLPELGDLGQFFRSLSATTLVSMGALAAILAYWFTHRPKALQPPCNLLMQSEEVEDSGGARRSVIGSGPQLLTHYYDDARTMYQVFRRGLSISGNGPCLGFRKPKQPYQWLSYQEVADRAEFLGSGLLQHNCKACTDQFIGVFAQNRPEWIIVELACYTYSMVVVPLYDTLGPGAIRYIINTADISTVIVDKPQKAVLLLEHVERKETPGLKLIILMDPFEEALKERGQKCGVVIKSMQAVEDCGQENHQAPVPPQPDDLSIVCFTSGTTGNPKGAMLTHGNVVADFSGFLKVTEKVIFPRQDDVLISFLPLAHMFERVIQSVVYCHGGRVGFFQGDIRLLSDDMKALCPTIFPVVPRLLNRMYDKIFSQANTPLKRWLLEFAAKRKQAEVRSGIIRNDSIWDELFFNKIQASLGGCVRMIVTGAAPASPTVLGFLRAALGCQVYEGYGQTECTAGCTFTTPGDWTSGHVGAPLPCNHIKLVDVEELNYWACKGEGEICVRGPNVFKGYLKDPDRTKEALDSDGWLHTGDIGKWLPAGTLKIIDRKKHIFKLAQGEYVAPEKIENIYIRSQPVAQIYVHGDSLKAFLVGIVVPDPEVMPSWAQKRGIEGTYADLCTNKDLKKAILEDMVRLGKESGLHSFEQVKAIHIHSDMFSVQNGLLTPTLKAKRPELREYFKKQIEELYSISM

[2] = biological target: T1, hACSL6-iso2 (human long-chain acyl-CoA synthetase 6); test: acyl-CoA / acyl-AMP formation; format: biochemical; conditions: with fatty acid and CoASH
[3] = biological target: T2, CT699 (PsdD), PS-decarboxylase (Chlamydia trachomatis, UniProt P0CD79); test: conversion of NBD-PS to NBD-PE, TLC fluorescence, E. coli lysate vs vector control; format: cell-based; conditions: 2 µM NBD-PS, Tris pH 7.4, 37 °C; labelled compound
T2 construct: gene psd; full-length, pET28a, expressed in E. coli BL21(DE3), lysate
T2 sequence (P0CD79 1-259): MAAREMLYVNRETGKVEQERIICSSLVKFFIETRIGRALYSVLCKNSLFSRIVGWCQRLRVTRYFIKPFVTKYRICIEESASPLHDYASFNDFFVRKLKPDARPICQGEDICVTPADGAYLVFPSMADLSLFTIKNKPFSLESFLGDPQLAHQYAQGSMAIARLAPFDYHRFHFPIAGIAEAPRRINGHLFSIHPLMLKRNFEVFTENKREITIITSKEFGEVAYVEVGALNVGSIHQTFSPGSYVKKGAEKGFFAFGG
T2 sequence (P0CD79 260-301): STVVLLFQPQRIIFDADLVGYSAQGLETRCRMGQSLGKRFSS

[4] = biological target: T3, human LPCAT1 (hLPCAT1) (Homo sapiens, UniProt Q8NF37); test: competition with NBD-C16-CoA acylation of 1-C16-GPC, TLC fluorescence, microsomes; format: biochemical; conditions: 0.5 µM NBD-C16-CoA, 20 µM 1-C16-GPC, 0.25-1.0 µM competitor, 30 °C; competing acyl donor
T3 construct: expressed in E. coli BL21(DE3), membrane fraction; cloning reported previously
T3 sequence (Q8NF37 1-534): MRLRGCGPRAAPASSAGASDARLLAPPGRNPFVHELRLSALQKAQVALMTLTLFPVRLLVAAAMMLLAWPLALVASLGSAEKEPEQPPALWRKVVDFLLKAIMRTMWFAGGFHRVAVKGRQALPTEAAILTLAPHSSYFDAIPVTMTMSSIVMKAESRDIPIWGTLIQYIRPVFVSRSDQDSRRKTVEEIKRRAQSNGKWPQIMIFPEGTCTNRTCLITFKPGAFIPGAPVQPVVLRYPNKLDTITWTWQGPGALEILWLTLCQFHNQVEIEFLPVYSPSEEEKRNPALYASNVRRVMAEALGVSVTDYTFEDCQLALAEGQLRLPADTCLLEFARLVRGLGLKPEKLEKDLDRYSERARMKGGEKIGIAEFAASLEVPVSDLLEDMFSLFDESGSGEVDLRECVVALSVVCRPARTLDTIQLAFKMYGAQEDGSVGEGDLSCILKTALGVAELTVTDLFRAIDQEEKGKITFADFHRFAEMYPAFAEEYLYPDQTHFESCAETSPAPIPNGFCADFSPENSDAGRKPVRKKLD

[5] = biological target: T4, AasC (CT776), Chlamydia acyl-ACP synthase (Chlamydia trachomatis, UniProt O84781); test: […]-phospholipid formation from […]-palmitate in E. coli lysate, TLC; format: biochemical; conditions: 5 µM [14C]C16-OH, 10 mM ATP, 20 mM MgCl2, pH 7.4, 30 °C; E. coli acyl carrier and acyltransferase in lysate
T4 construct: gene aas; full-length, pET28a, expressed in E. coli BL21(DE3), crude lysate
T4 sequence (O84781 1-537): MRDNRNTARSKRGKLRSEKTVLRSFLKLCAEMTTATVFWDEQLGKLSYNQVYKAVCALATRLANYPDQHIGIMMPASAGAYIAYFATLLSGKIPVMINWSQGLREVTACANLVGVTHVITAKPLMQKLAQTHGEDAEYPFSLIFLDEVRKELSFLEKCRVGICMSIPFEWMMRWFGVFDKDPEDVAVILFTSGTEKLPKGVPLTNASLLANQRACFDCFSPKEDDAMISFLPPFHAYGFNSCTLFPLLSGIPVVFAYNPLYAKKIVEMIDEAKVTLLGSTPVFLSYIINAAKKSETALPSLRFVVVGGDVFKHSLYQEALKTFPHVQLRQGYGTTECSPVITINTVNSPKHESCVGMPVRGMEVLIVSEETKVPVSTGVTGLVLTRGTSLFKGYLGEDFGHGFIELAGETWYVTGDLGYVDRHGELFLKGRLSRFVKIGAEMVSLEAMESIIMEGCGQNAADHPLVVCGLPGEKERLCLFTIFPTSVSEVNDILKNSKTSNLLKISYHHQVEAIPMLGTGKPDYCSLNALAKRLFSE

[6] = biological target: T4, AasC (CT776), Chlamydia acyl-ACP synthase; test: as above; format: biochemical; conditions: 5 µM [14C]C16-OH, 10 mM ATP, 20 mM MgCl2, pH 7.4, 30 °C; E. coli acyl carrier and acyltransferase in lysate; remark: listed apart in the source
[7] = biological target: T5, CT775 (LpaT), lysophospholipid acyltransferase (Chlamydia trachomatis, UniProt O84780); test: NBD-PC formation, TLC, bee venom PLA2 digestion, microsomes; format: biochemical; conditions: 1 µM NBD-C16-CoA, 10 µM 1-C16-GPC, pH 7.4, 30 °C; acyl acceptor
T5 construct: gene CT_775; expressed in E. coli BL21(DE3), membrane fraction (microsomes); cloning reported previously
T5 sequence (O84780 1-253): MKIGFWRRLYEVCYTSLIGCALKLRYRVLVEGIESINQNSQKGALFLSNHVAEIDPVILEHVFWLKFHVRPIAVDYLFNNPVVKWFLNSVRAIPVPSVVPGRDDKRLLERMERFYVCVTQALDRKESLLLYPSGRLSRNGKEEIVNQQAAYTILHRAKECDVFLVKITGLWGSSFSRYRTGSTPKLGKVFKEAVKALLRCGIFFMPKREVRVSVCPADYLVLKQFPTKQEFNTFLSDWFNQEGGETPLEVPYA

CC(C)CCCCCCCCCC(=O)O [MeC12-OH]
competition at 10 μM [1]: The shorter chain MeC12-OH also competed but not as efficiently as MeC18-OH

Nc1ncnc2c1ncn2[C@@H]1O[C@H](COP(=O)(O)OP(=O)(O)OP(=O)(O)O)[C@@H](O)[C@H]1O [ATP]
acyl-CoA / acyl-AMP formation [2]: In the presence of both ATP and CoASH, acyl-CoA is formed from fatty acids

CCCCCCCCCCCCCCCC(=O)OC[C@H](COP(=O)(O)OC[C@H](N)C(=O)O)OC(=O)CCCCCNc1ccc([N+](=O)[O-])c2nonc12 [NBD-PS, 1-palmitoyl-2-(6-[(7-nitro-2-1,3-benzoxadiazol-4-yl)amino]hexanoyl)-sn-glycero-3-phosphoserine]
conversion of NBD-PS to NBD-PE, TLC fluorescence, E. coli lysate vs vector contr [3]: CT699 was active and able to convert fluorescent NBD-PS into NBD-PE

CCCCCCCC/C=C\CCCCCCCC(=O)SCCNC(=O)CCNC(=O)[C@H](O)C(C)(C)COP(=O)(O)OP(=O)(O)OC[C@H]1O[C@@H](n2cnc3c(N)ncnc32)[C@H](O)[C@@H]1OP(=O)(O)O [C18:1-CoA]
% of activity without competitor [4]: MeC18-CoA was a stronger competitor than C18:1-CoA

CCC/C=C/C/C=C/C=C/C=N/NN=O [triacsin C]
% inhibition at 5 μM [5]: both drugs had a significant inhibitory effect on FA incorporation in the presence of the AasC

CC(C)CCCCCCCCCCCCCCCC(=O)O [MeC18-OH]
competition at 10 μM [1]: this long-chain odd fatty acid was as good a substrate for hACSL6 as C18:1-OH

CC(C)CCCCCCCCCCCCCCCC(=O)SCCNC(=O)CCNC(=O)[C@H](O)C(C)(C)COP(=O)(O)OP(=O)(O)OC[C@H]1O[C@@H](n2cnc3c(N)ncnc32)[C@H](O)[C@@H]1OP(=O)(O)O [MeC18-CoA]
% of activity without competitor [4]: NBD-C16-CoA to 1-acyl-GPC by hLPCAT1 was strongly reduced in the presence of MeC18-CoA

CN(CCOc1ccc(CC2SC(=O)NC2=O)cc1)c1ccccn1 (stereo not drawn) [rosiglitazone G]
% inhibition at 100 μM [6]: both drugs had a significant inhibitory effect on FA incorporation in the presence of the AasC

CCCCCCCCCCCCCCCC(=O)OC[C@@H](O)COP(=O)([O-])OCC[N+](C)(C)C [1-C16-sn-glycerol-3-P-choline, 1-palmitoyl-2-hydroxy-sn-glycero-3-phosphocholine]
NBD-PC formation, TLC, bee venom PLA2 digestion, microsomes [7]: NBD-acyl group had been transferred by CT775 to the sn2 position of the 1-C16-GPC isomer
